# Experimental data reported in US10155756B2, “Pyrazolo[1,5-A]pyridine compounds and use thereof” (GUANGZHOU INSTITUTES OF BIOMEDICINE AND HEALTH, CHINESE …, priority 2014, dated 2018).
# Tested on: self-luminescent tuberculosis
# Test: microbe, parasite or virus in culture
# Assay type: cell-based
# Settings: Mycobacterium tuberculosis, 72 h; read-out: MIClux
row,SMILES,MIC
1,"Cc1nn2ccc(-c3ccccc3)cc2c1C(=O)NCc1ccc(N2CCC(c3ccc(OC(F)(F)F)cc3)CC2)cc1 [TJ830012, 5-phenyl-2-methyl-N-(4-(4-(4-(trifluoromethoxy)phenyl)piperidine-1-yl)benzyl) pyrazolo [1,5-a] pyridine-3-carboxamide]",> 10 µg/mL
2,"Cc1ccn2nc(C)c(C(=O)NCc3ccc(N4CCN(c5ccc(F)cc5)CC4)cc3)c2c1 [TJ830152, N-(4-(4-(4-fluorophenyl)piperazine-1-yl)benzyl)-2,5-dimethyl-pyrazolo [1,5-a] pyridine-3-carboxamide]",< 1 µg/mL
3,"Cc1ccn2nc(C)c(C(=O)NCc3ccc(N4CCC(c5ccc(F)cc5)CC4)cc3)c2c1 [TJ830141, N-(4-(4-(4-fluorophenyl)piperidine-1-yl)benzyl)-2,5-dimethyl-pyrazolo [1,5-a] pyridine-3-carboxamide]",< 1 µg/mL
4,"Cc1nn2cccc(C)c2c1C(=O)NCc1ccc(N2CCC(c3ccc(OC(F)(F)F)cc3)CC2)cc1 [TJ064872, 2,4-dimethyl-N-(4-(4-(4-(trifluoromethoxy)phenyl)piperidine-1-yl)benzyl) pyrazolo[1,5-a] pyridine-3-carboxamide]",> 10 µg/mL
5,Cc1ccn2nc(C)c(C(=O)NCc3cn(-c4ccc(OC(F)(F)F)cc4)nn3)c2c1 [TJ830003],> 10 µg/mL
6,"Cc1ccn2nc(C)c(C(=O)NCc3ccc(-c4ccc(OC(F)(F)F)cc4)cc3)c2c1 [TJ830151, 2,5-dimethyl-N-((4′-(trifluoromethoxy)-[1,1′-biphenyl]-4-yl)methyl) pyrazolo [1,5-a] pyridine-3-carboxamide]",< 1 µg/mL
7,"COc1ccc(C2CCN(c3ccc(CNC(=O)c4c(C)nn5ccc(C)cc45)cc3)CC2)cc1 [TJ830140, N-(4-(4-(4-methoxyphenyl)piperidine-1-yl)benzyl)-2,5-dimethyl-pyrazolo [1,5-a] pyridine-3-carboxamide]",< 1 µg/mL
8,"CCc1nn2ccc(Cl)cc2c1C(=O)NCc1ccc(F)cc1 [TJ4570004, 5-chloro-2-ethyl-N-(4-fluorobenzyl) pyrazolo [1,5-a] pyridine-3-carboxamide]",> 10 µg/mL
9,"Cc1ccn2nc(C)c(C(=O)NCc3ccc(C(C)(C)C)cc3)c2c1 [TJ830135, N-(4-(tert-butyl)benzyl)-2,5-dimethylpyrazolo [1,5-a] pyridine-3-carboxamide]",< 1 µg/mL
10,"Cc1ccn2nc(C)c(C(=O)NCc3cnc(-c4ccc(OC(F)(F)F)cc4)nc3)c2c1 [TJ830150, 2,5-Dimethyl-N-((2-(4-(trifluoromethoxy)phenyl)pyrimidine-5-yl)methyl) pyrazolo [1,5-a] pyridine-3-carboxamide]",< 1 µg/mL
11,Cc1ccn2nc(C)c(C(=O)NCc3ccc(C(F)(F)F)cc3)c2c1 [TJ830072],< 1 µg/mL
12,"CCc1nn2ccc(Cl)cc2c1C(=O)NC(C)c1ccc(N2CCC(c3ccc(OC(F)(F)F)cc3)CC2)cc1 (stereo not shown) [TJ830070, 5-chloro-2-ethyl-N-(1-(4-(4-(4-(trifluoromethoxy)phenyl)piperidine-1-yl)phenyl)ethanol) pyrazolo [1,5-a] pyridine-3-carboxamide]",> 10 µg/mL
13,"Cc1ccn2nc(C)c(C(=O)NCc3ccc(-c4ccc(OC(F)(F)F)cc4)cn3)c2c1 [TJ830133, 2,5-dimethyl-N-((5-(4-(trifluoromethoxy)phenyl)pyridine-2-yl)methyl) pyrazolo [1,5-a] pyridine-3-carboxamide]",< 1 µg/mL
14,"CCc1nn2ccc(Cl)cc2c1C(=O)NCc1ccc(C(=O)OC)cc1 [TJ064814, 4-((5-chloro-2-ethylpyrazolo [1,5-a]pyridine-3-carboxamide)methyl) methyl benzoate]",1 to 10 µg/mL
15,"CCc1nn2ccc(Cl)cc2c1C(=O)NCc1ccc(-c2ccc(OC(F)(F)F)cc2)nc1 [TJ830028, 5-chloro-2-ethyl-N-((6-(4-(trifluoromethoxy)phenyl)pyridine-3-yl)methyl) pyrazolo [1,5-a] pyridine-3-carboxamide]",< 1 µg/mL
16,"Cc1nn2ccc(C(F)(F)F)cc2c1C(=O)NCc1ccc(N2CCC(c3ccc(OC(F)(F)F)cc3)CC2)cc1 [TJ064995, 5-trifluoromethyl-2-methyl-N-(4-(4-(4-(trifluoromethoxy)phenyl)piperidine-1-yl)benzyl) pyrazolo [1,5-a] pyridine-3-carboxamide]",1 to 10 µg/mL
17,"COc1ccn2nc(C)c(C(=O)NCc3ccc(N4CCC(c5ccc(OC(F)(F)F)cc5)CC4)cc3)c2c1 [TJ830047, 5-methoxy-2-methyl-N-(4-(4-(4-(trifluoromethoxy)phenyl)piperidine-1-yl)benzyl) pyrazolo [1,5-a] pyridine-3-carboxamide]",< 1 µg/mL
18,"CCc1nn2ccc(Cl)cc2c1C(=O)NCCc1ccc(N2CCC(c3ccc(OC(F)(F)F)cc3)CC2)cc1 [TJ830128, 5-chloro-2-ethyl-N-(4-(4-(4-(trifluoromethoxy)phenyl)piperidine-1-yl)phenethyl) pyrazolo [1,5-a] pyridine-3-carboxamide]",1 to 10 µg/mL
19,"Cc1ccn2nc(C)c(C(=O)NCc3ccc(-c4ccc(OC(F)(F)F)cc4)nc3)c2c1 [TJ830025, 2,5-dimethyl-N-((6-(4-(trifluoromethoxy)phenyl)pyridine-3-yl)methyl) pyrazolo [1,5-a] pyridine-3-carboxamide]",< 1 µg/mL

row,SMILES,MIC
1,Cc1ccn2nc(C)c(C(=O)NCc3ccc(Oc4ccc(OC(F)(F)F)cc4)cc3)c2c1 [TJ830153],< 1 µg/mL
2,"CCc1nn2ccc(C)cc2c1C(=O)NCc1ccc(N2CCC(c3ccc(OC(F)(F)F)cc3)CC2)cc1 [TJ830102, 5-methyl-2-ethyl-N-(4-(4-(4-(trifluoromethoxy)phenyl)piperidine-1-substituted)benzyl) pyrazolo [1,5-a] pyridine-3-carboxamide]",< 1 µg/mL
3,Cc1nn2ccccc2c1C(=O)NCc1ccc(C(F)(F)F)cc1 [TJ830069],1 to 10 µg/mL
4,"O=C(NCc1ccc(N2CCC(c3ccc(OC(F)(F)F)cc3)CC2)cc1)c1cnn2ccc(Cl)cc12 [TJ170371, 5-chloro-N-(4-(4-(4-(trifluoromethoxy)phenyl)piperidine-1-yl)benzyl) pyrazolo [1,5-a] pyridine-3-carboxamide]",1 to 10 µg/mL
5,"CCOc1ccn2nc(C)c(C(=O)NCc3ccc(N4CCC(c5ccc(OC(F)(F)F)cc5)CC4)cc3)c2c1 [TJ830108, 5-methyl-2-ethoxy-N-(4-(4-(4-(trifluoromethoxy)phenyl)piperidine-1-substituted)benzyl) pyrazolo [1,5-a] pyridine-3-carboxamide]",< 1 µg/mL
6,"Cc1ccn2nc(C)c(C(=O)NCc3ccc(N4CCC(Oc5ccc(OC(F)(F)F)cc5)CC4)cc3)c2c1 [TJ830161, 2,5-dimethyl-N-(4-(4-(4-(trifluoromethoxy)phenoxy)piperidine-1-yl)benzyl) pyrazolo [1,5-a] pyridine-3-carboxamide]",< 1 µg/mL
7,"Cc1ccn2nc(C)c(C(=O)NCc3ccc(N4CCCCC4)cc3)c2c1 [TJ830146, 2,5-dimethyl-N-(4-(piperidine-1-yl)benzyl) pyrazolo [1,5-a] pyridine-3-carboxamide]",< 1 µg/mL
8,"Cc1nn2ccc(C(C)C)cc2c1C(=O)NCc1ccc(N2CCC(c3ccc(OC(F)(F)F)cc3)CC2)cc1 [TJ830073, 5-isopropyl-2-methyl-N-(4-(4-(4-(trifluoromethoxy)phenyl)piperidine-1-yl)benzyl) pyrazolo [1,5-a] pyridine-3-carboxamide]",1 to 10 µg/mL
9,"CCc1nn2ccc(Cl)cc2c1C(=O)Nc1ccc(N2CCC(c3ccc(OC(F)(F)F)cc3)CC2)cc1 [TJ064819, 5-chloro-2-ethyl-N-(4-(4-(4-(trifluoromethoxy)phenyl)piperidine-1-yl)phenyl) pyrazolo [1,5-a] pyridine-3-carboxamide]",> 10 µg/mL
10,"Cc1ccc2c(C(=O)NCc3ccc(N4CCC(c5ccc(OC(F)(F)F)cc5)CC4)cc3)c(C)nn2c1 [TJ064854, 2,6-dimethyl-N-(4-(4-(4-(trifluoromethoxy)phenyl)piperidine-1-yl)benzyl) pyrazolo[1,5-a] pyridine-3-carboxamide]",< 1 µg/mL
11,"Cc1nn2ccc(C(C)(C)C)cc2c1C(=O)NCc1ccc(N2CCC(c3ccc(OC(F)(F)F)cc3)CC2)cc1 [TJ830075, 5-tert-Butyl-2-methyl-N-(4-(4-(4-(trifluoromethoxy)phenyl)piperidine-1-substituted)benzyl) pyrazolo [1,5-a] pyridine-3-carboxamide]",> 10 µg/mL
12,"Cc1ccn2nc(C)c(C(=O)NCc3ccc(N4CCC(C(F)(F)F)CC4)cc3)c2c1 [TJ830149, 2,5-dimethyl-N-(4-(4-(trifluoromethyl)piperidine-1-yl)benzyl) pyrazolo [1,5-a] pyridine-3-carboxamide]",< 1 µg/mL
13,"Cc1ccn2nc(C)c(C(=O)NCc3ccc(-c4ccc(OC(F)(F)F)cc4)s3)c2c1 [TJ830132, 2,5-dimethyl-N-((5-(4-(trifluoromethoxy)phenyl)thiophene-2-yl)methyl) pyrazolo [1,5-a] pyridine-3-carboxamide]",< 1 µg/mL
14,"Cc1ccn2nc(C)c(C(=O)NCc3ccc(Oc4ccc(F)cc4)cc3)c2c1 [TJ830147, N-(4-(4-fluorophenoxy)benzyl)-2,5-dimethylpyrazolo [1,5-a] pyridine-3-carboxamide]",< 1 µg/mL
15,"Cc1ccn2nc(C)c(C(=O)NCc3ccc(F)cc3)c2c1 [TJ4570006, N-(4-fluorobenzyl)-2,5-dimethylpyrazolo [1,5-a] pyridine-3-carboxamide]",1 to 10 µg/mL
16,"O=C(NCc1ccc(N2CCC(c3ccc(OC(F)(F)F)cc3)CC2)cc1)c1c(-c2ccccc2)nn2ccc(Cl)cc12 [TJ170386, 5-chloro-2-phenyl-N-(4-(4-(4-(trifluoromethoxy)phenyl)piperidine-1-yl)benzyl) pyrazolo [1,5-a] pyridine-3-carboxamide]",> 10 µg/mL
17,CCc1nn2ccc(Cl)cc2c1C(=O)N(C)Cc1ccc(N2CCC(c3ccc(OC(F)(F)F)cc3)CC2)cc1 [TJ064985],1 to 10 µg/mL
18,"CCc1nn2ccc(Cl)cc2c1C(=O)NC(C)(C)c1ccc(N2CCC(c3ccc(OC(F)(F)F)cc3)CC2)cc1 [TJ064987, 5-chloro-2-ethyl-N-(2-(4-(4-(4-(trifluoromethoxy)phenyl)piperidine-1-yl)phenyl)propane-2-substituted) pyrazolo [1,5-a] pyridine-3-carboxamide]",> 10 µg/mL
